Patent publication US20100137344A1, “INDUCTION OF ANALGESIA IN NEUROPATHIC PAIN” (University Court of the University of Edinburgh, priority 2006, published 2010)

Columns and labels:
Assay type in all cases: in vivo, rat
[1] = system: rats with chronic constriction injury (CCI) to sciatic nerve; assay: Topical application to paws of CCI rats, behavioural reflex testing (thermal PWL, mechanical PWT); conditions: icilin 200 μM topical; mGluR antagonists intrathecally
[2] = system: rats with chronic constriction injury (CCI) to sciatic nerve; assay: Intrathecal application in CCI rats, behavioural reflex testing (PWL, PWT); conditions: for mean percentage reversal of sensitisation by (−)-menthol with antagonist, PWL / mean percentage reversal of sensitisation by (−)-menthol with antagonist, PWT: (−)-menthol 200 nmol plus intrathecal antagonist, 20-30 minutes post-injection; for effect on analgesia by intrathecal icilin: LY 341495 5 nmol, UBP 1112 10 nmol co-administered with icilin 10 nmol; for effect of antagonist alone: intrathecal, data not shown
Method: Pain models were generated under halothane anaesthesia (Zeneca, Cheshire, UK). For the chronic constriction injury (CCI) model of neuropathic pain, four ligatures were tied loosely to constrict the sciatic nerve at mid-thigh level (as described previously^[39]). An inflammatory pain model was generated by injecting 100 μl of Complete Freund's Adjuvant (CFA, Sigma-Aldrich Ltd) into the ventral surface of the right hindpaw^[39]. A model of peripheral demyelination-induced pain was produced by focal application of lysolecithin to the sciatic nerve^[40]. Peak behavioural sensitisation was observed post-surgically between days 10-16 for CCI, 1-3 for CFA, and 7-14 for lysolecithin, when pharmacological and electrophysiological experiments and tissue removal were conducted.
(§1) Thermal sensitivity was assessed by measuring paw withdrawal latency (PWL, s) in response to a noxious thermal stimulus (Hargreaves' thermal stimulator, Linton Instrumentation, Diss, UK) directed to the hindpaw mid-plantar glabrous surface. Mechanical sensitivity was recorded as the paw withdrawal threshold (PWT, mN/mm^2) to calibrated von Frey filaments (Stoelting, Ill., US), as previously described^[39]. Sensitivity to noxious cold was assessed by placing animals in a waterbath with an aluminium floor containing 1 cm deep 4° C. water and counting the time the paw was held suspended over a 20 s period.
(§2) The following drugs were applied intrathecally in a 50 μl volume of saline-based vehicle at 37° C.: icilin (2.5-200 μM in saline with 0.2% dimethylformamide, DMF), LY 341495 (100 μM in saline), UBP 1112 (200 μM in saline), 2R,4R-APDC ((2R, 4R)-4-aminopyrrolidine-2,4-dicarboxylate), 300 μM in saline), ACPT-III ((1R,3R,4S)-1-aminocyclopentane-1,3,4-tricarboxylic acid), 3 mM in saline), AP-4, ((L-(1)-2-amino-4-phosphonobutyric acid), 3 mM in saline), naloxone (0.5 mM in saline), NMDA (75 μM in saline) and ACPC (1-aminocyclopropanecarboxylic acid, 15 μM in saline) (Tocris Cookson, Bristol, UK), (−)-menthol (1R,2S,5R-(−)-menthol, 4 mM in saline), cinnamaldehyde (1.5 mM in saline) and Ruthenium Red (5 μM in saline) (Sigma-Aldrich Co. Ltd, UK) and allicin (0.5 mM in saline with 0.5% DMF) and diallyl disulphide (DADS, 1 mM in saline with 0.5% DMF) (LKT Laboratories Inc., St Paul, Minn., USA). Drugs were injected into the L5/6 intrathecal space under brief halothane anaesthesia, using a 25-gauge needle microsyringe (BD Biosciences, Oxford, UK), as described previously^[39] in animals that were at peak levels of behavioural sensitisation. Behavioural reflex testing commenced 15 min following injection to allow recovery from anaesthesia^[40,41,42] and continued every 5 min thereafter until readings returned to baseline levels (n=6 in each case). We, and others^[40,41,42] find complete recovery from anaesthetic by 15 minutes. All appropriate controls were carried out to eliminate the possibility of effects due to vehicle or to injection procedure.
(§3) The TRPM8 channel activators, icilin and (−)-menthol were tested in CCI and naïve animals. The effects of icilin were additionally assessed in animals with CFA-induced inflammation or with lysolecithin-induced demyelination. Icilin was also co-administered with the μ-opioid receptor antagonist naloxone, the Group II metabotropic glutamate receptor (mGluR) antagonist, LY 341495, or the Group III mGluR antagonist, UBP 1112. The effects of these antagonists alone as well as effects of the Group II mGluR agonist, 2R,4R-APDC and the Group III mGluR agonists, ACPT-III and AP-4, were assessed in CCI animals. The TRPA1 channel activator, cinnamaldehyde, alone and with icilin, was tested in CCI animals and in naïve animals. Further TRPA1 channel activators, allicin and diallyl disulphide were assessed in naïve animals. Both icilin and cinnamaldehyde effects in CCI animals were also investigated in the additional presence of Ruthenium Red.

[3] = system: rats with chronic constriction injury (CCI); assay: Cooling (16° C.)-induced analgesia in CCI rats with intrathecal mGluR antagonists; conditions: skin cooling to 16° C.; intrathecal LY 341495 5 nmol or UBP 1112 10 nmol
Method: Icilin was applied at concentrations of 2.5-500 μM (in water with 0.2% DMF), by placing CCI or naïve rats unrestrained for 5 min in a 1 cm deep waterbath (sufficient to cover paws), which was thermostatically controlled to a temperature of 30° C., or by very lightly anaesthetising rats and immersing hindpaws in small tubes containing 5 ml icilin (500 μM-5 mM, with a vehicle of 45% dimethylformamide in 0.2% aqueous Tween 80) for 5 min, followed by sensory testing for 60-80 mins. The effects of (−)-menthol and its stereoisomers isomenthol (1S,2R,5R-menthol,) and (+)-menthol (1S,2R,5S(+)-menthol) (4-16 mM in 80% ethanol) were also assessed. Relevant vehicles were always assessed in similar experiments. As a contrast, the effect of cinnamaldehyde (1.5 mM in water) and the effect of cinnamaldehyde with additional icilin (80 μM in water with 0.2% DMF) were assessed in naïve animals. The effects of icilin (80 μM) were further assessed in CCI animals that had undergone antisense and mis-sense treatment for knockdown of TRPM8 or immediately following intrathecal injection of either LY 341495 or UBP 1112. […] The effects of brief paw immersion at different temperatures (10-22° C. for 5 min) on CCI rats were assessed by mechanical testing. The effects of intrathecal LY 341495 or UBP 1112 on the reversal of ipsilateral sensitisation in CCI following a 16° C. cool challenge for 5 min were measured. […]

dorsal horn neurons = assay: Extracellular recordings of single spinal dorsal horn neurons in CCI animals (brush-evoked firing)
Method: Peripheral: Recordings of saphenous (sensory) nerve were made in naïve animals (n=7) to assess the effects of topical icilin on primary afferents. In addition, recordings were carried out on animals which had undergone TRPM8 antisense or mis-sense treatment beginning 4-5 days previously. Rats were anaesthetised (with 0.6 ml 25% urethane/100 g, i.p.) and the saphenous nerve was exposed and dissected from its associated vein and artery. Further dissection under liquid paraffin enabled identification of afferent preparations comprising a small number of fibres. The conduction velocity of single identified afferent fibres was determined using bipolar electrodes and the peripheral stimulus technique^[43]. Following isolation of preparations, icilin (200 μM in water with 0.2% DMF), (−)-menthol (4 mM in 25% ethanol) resiniferatoxin (1 mM in ethanol) or vehicle alone were applied to the hindlimb receptive fields and neuronal responses recorded using the Chart programme (version 3.6). Central: Recordings of spinal dorsal horn neurons were made in CCI animals, as described previously^[39]. Following halothane induction, the jugular vein and trachea were canulated and intravenous anaesthetic delivered: α-chloralose ([…], Fisher) and urethane ([…], Sigma), with small supplementary doses of α-chloralose as required throughout the experiment. Core body temperature was maintained at 37-38° C. by means of a thermostatically controlled heated blanket. The animal was placed in a stereotaxic frame, and the thoracolumbar spinal column was supported using three pairs of swan-necked clamps. A laminectomy was performed at L2-L5, and agar (2% in saline at 37° C.) was delivered over exposed cord to increase mechanical stability. Above the recording region the agar and spinal cord dura were removed and liquid paraffin poured into the pool. Extracellular recordings were made from single multireceptive neurons in laminae I-IV through the centre barrel of a seven-barrelled glass microelectrode filled with 4M NaCl (tip-diameter […], DC resistance 5-8 MΩ). The receptive fields of hair-follicle innervated neurons on the distal hindlimb were identified by an innocuous brush stimulus^[39]. Icilin (200 μM in water with 0.2% DMF) was applied peripherally to the receptive field of individual recorded neurons, and the effect on neuronal response to a rotating brush was recorded and analysed using Spike2 programme (Version 3.2, CED). The Group III mGluR antagonist UBP 1112 (20 mM in water), pH 8.5, and control 1M NaCl, pH 8.5 were ionophoresed from the side barrels of the electrode using currents of between 20 nA and 80 nA (Neurophore BH2 ionophoresis system, Medical Systems, Great Neck, N.Y.) to measure effects on neuronal response to icilin.

naïve rats [4] = assay: Topical application to paws of naïve rats, behavioural reflex testing (PWL, PWT); conditions: topical cinnamaldehyde 1.5 mM; bilateral
Method: as §1
Icilin was applied at concentrations of 2.5-500 μM (in water with 0.2% DMF), by placing CCI or naïve rats unrestrained for 5 min in a 1 cm deep waterbath (sufficient to cover paws), which was thermostatically controlled to a temperature of 30° C., or by very lightly anaesthetising rats and immersing hindpaws in small tubes containing 5 ml icilin (500 μM-5 mM, with a vehicle of 45% dimethylformamide in 0.2% aqueous Tween 80) for 5 min, followed by sensory testing for 60-80 mins. The effects of (−)-menthol and its stereoisomers isomenthol (1S,2R,5R-menthol,) and (+)-menthol (1S,2R,5S(+)-menthol) (4-16 mM in 80% ethanol) were also assessed. Relevant vehicles were always assessed in similar experiments. As a contrast, the effect of cinnamaldehyde (1.5 mM in water) and the effect of cinnamaldehyde with additional icilin (80 μM in water with 0.2% DMF) were assessed in naïve animals. The effects of icilin (80 μM) were further assessed in CCI animals that had undergone antisense and mis-sense treatment for knockdown of TRPM8 or immediately following intrathecal injection of either LY 341495 or UBP 1112. […] The effects of brief paw immersion at different temperatures (10-22° C. for 5 min) on CCI rats were assessed by mechanical testing. The effects of intrathecal LY 341495 or UBP 1112 on the reversal of ipsilateral sensitisation in CCI following a 16° C. cool challenge for 5 min were measured. Reflex testing commenced 5 minutes following challenge, unless animals had been anaesthetised, in which case 15 minutes was allowed for recovery. Six replicate animals were tested in all pharmacological experiments.

naïve rats [5] = assay: Intrathecal application in naïve rats, behavioural reflex testing (PWL, PWT); conditions: naïve animals, cinnamaldehyde 75 nmol, allicin 25 nmol
Method: as §1, §2, §3

[6] = system: rats sensitised by the TRPA1 activator cinnamaldehyde; assay: Cinnamaldehyde-induced sensitisation and its reversal by icilin (PWL, PWT); conditions: difference from prior baseline, no icilin
Method: as §1, §2, §3
Icilin was applied at concentrations of 2.5-500 μM (in water with 0.2% DMF), by placing CCI or naïve rats unrestrained for 5 min in a 1 cm deep waterbath (sufficient to cover paws), which was thermostatically controlled to a temperature of 30° C., or by very lightly anaesthetising rats and immersing hindpaws in small tubes containing 5 ml icilin (500 μM-5 mM, with a vehicle of 45% dimethylformamide in 0.2% aqueous Tween 80) for 5 min, followed by sensory testing for 60-80 mins. The effects of (−)-menthol and its stereoisomers isomenthol (1S,2R,5R-menthol,) and (+)-menthol (1S,2R,5S(+)-menthol) (4-16 mM in 80% ethanol) were also assessed. Relevant vehicles were always assessed in similar experiments. As a contrast, the effect of cinnamaldehyde (1.5 mM in water) and the effect of cinnamaldehyde with additional icilin (80 μM in water with 0.2% DMF) were assessed in naïve animals. […]

Row | Structure (SMILES) | effect on reversal of thermal and mechanical sensitisation by topical icilin [1] | mean percentage reversal of sensitisation by (−)-menthol with antagonist, PWL [2] | mean percentage reversal of sensitisation by (−)-menthol with antagonist, PWT [2] | effect on analgesia by intrathecal icilin [2] | effect of antagonist alone [2] | mean percentage reversal of ipsilateral CCI-induced reductions in PWT caused by cooling [3] | reduction in PWT (naïve rats [5]; diallyl disulphide 50 mmol) | also measured
1 | N[C@](CC1c2ccccc2Oc2ccccc21)(C(=O)O)[C@H]1C[C@@H]1C(=O)O [LY 341495] | prevented | 22.0±6.9% | 7.1±7.1% | prevented the effect of icilin | Neither LY 341495 nor UBP 1112 had any effects alone | 0.0±0.0% | – | –
2 | Cc1cc(C(C)(N)C(=O)O)ccc1P(=O)(O)O (stereo not shown) [UBP 1112] | prevented | 9.2±6.9% | 0.0±0.0% | prevented the effect of icilin | Neither LY 341495 nor UBP 1112 had any effects alone | 0.0±0.0% | – | brush-induced firing rate with icilin plus UBP 1112 (dorsal horn neurons; UBP 1112 ionophoresed at 20-60 nA, icilin 200 μM topical): 80.2±9.3 % of control values; effect of UBP 1112 alone on neuronal responses (dorsal horn neurons; ionophoresis): had no effect alone
3 | O=CC=Cc1ccccc1 [cinnamaldehyde] | – | – | – | – | – | – | 41.9±6.7% | reflex responsiveness in thermal and mechanical tests ([2]; cinnamaldehyde 75 nmol intrathecal, contralateral as well as ipsilateral to nerve injury): significantly increased reflex responsiveness; mean decrease in PWL (naïve rats [4]): 32.0±8.6%; mean decrease in PWT (naïve rats [4]): 20.2±8.2%; reduction in PWL (naïve rats [5]; diallyl disulphide 50 mmol): 36.9±7.9%; PWL (s) difference from control (no drug) ([6]; cinnamaldehyde intrathecal): 5.9 ± 0.9 s; PWT (mN/mm^2) difference from control (no drug) ([6]; cinnamaldehyde intrathecal): 2022.6 ± 375.4 mN/mm^2; PWL (s) difference from control (no drug) ([6]; cinnamaldehyde topical): 5.0 ± 1.5 s; PWT (mN/mm^2) difference from control (no drug) ([6]; cinnamaldehyde topical): 1002.0 ± 316.8 mN/mm^2
4 | C=CCSSCC=C [diallyl disulphide] | – | – | – | – | – | – | 28.5±6.2% | reduction in PWL (naïve rats [5]; diallyl disulphide): 25.9±7.0%
